Target: T1, rat estrogen receptor (pCI-rER α) (Rattus norvegicus, UniProt P06211)
T1 construct: expressed in transfected cells; host or cells: COS-1 cells
T1 sequence (P06211 1-600): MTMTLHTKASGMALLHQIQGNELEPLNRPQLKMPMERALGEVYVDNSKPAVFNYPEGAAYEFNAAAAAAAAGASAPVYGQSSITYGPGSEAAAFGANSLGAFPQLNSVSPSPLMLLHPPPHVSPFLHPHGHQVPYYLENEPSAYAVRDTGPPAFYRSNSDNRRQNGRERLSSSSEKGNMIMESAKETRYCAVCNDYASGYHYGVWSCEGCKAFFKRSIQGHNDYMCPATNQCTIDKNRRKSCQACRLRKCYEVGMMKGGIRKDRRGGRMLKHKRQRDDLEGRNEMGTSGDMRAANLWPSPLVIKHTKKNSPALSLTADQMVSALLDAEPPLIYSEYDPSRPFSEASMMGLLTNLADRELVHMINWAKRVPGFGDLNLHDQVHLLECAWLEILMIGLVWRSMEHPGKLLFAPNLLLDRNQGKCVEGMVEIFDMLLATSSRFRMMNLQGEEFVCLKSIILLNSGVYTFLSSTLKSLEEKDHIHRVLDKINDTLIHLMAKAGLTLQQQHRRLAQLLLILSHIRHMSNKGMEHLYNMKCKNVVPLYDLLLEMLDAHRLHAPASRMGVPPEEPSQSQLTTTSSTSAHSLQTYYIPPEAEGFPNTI
Assay: Antiestrogenic activity, luciferase reporter gene assay with coexisting β-estradiol
Format: cell-based
Conditions: coexisting β-estradiol 1 × 10^−9M
Description: As estrogenic activity, estrogen receptor-dependent transcriptional activation abilities of the test compounds were determined by the r porter gene assay using luciferase gene. COS-1 cells were cultured using a DMEM medium containing an antibiotics and 5% bovine fetal serum in the wells of 24 well plates (cell density: 5 to 6×10^4/well) at 37° C. for one night under 5% carbon dioxide. On the next day, the medium was changed to DMEM medium not containing Phenol Red. Using gene introducing reagent Tfx-20 (Promega), reporter plasmid EREx3-pGL-TK, in which rat estrogen receptor expression plasmid pCI-rER α and an estrogen responsive sequence were placed upstream of the luciferase gene, and β-galactosidase expression plasmid pCMV β used as an internal standard were introduced into cells. The cells were cultured for 2 h, and the medium was changed to DMEM not containing Phenol Red but containing active charcoal-treated serum.
The culture was added with each test compound dissolved in ethanol at various concentrations (final ethanol concentration at 0.5%) and then cultivation was continued at 37° C. for one night under 5% carbon dioxide. On the next day, the cells were lysed and enzymatic activity of luciferase expressed was measured by using a chemiluminometer. The values were standardized based on galactocidase enzymatic activity, and then compared with the values obtained by experiments using no test compound and used as values of activity at various concentrations. […] The estrogenic activities in the table are shown as concentrations for 50% activity (EC50 values) which give 50% activities relative to luciferase activity regarded as 100 that is expressed by treatment with the control compound β-estradiol at 10 nM. Each compound tested in this experiment has a high estrogenic activity.
As antiestrogenic activities, estrogen receptor-dependent transcriptional activation abilities of the test compounds were measured by the reporter gene assay using luciferase gene in the same manner as the estrogen activity measurement. In Table 7, antiestrogenic activities of test compounds are indicated as IC50 values as 50% inhibitory concentrations relative to the luciferase activity regarded as 100 which is expressed by β-estradiol at 1 nM coexisting in the experimental system. Each compound tested in this experiment has antiestrogenic activity.

“1-(3-hydroxyphenyl)-2-(3-dimethylaminoethoxyphenyl)-1,2-dicarba-closo-dodecaborane [BR372]” was tested. Which IC50 did it give?
The IC50 was 200 nM.

Which IC50 does the source give for “1-(3-hydroxyphenyl)-7-(3-dimethylaminoethoxyphenyl)-1,7-dicarba-closo-dodecaborane [BR272]” here?
Its IC50 is 500 nM.

How did the IC50 turn out when “1-(4-hydroxyphenyl)-7-(4-dimethylaminoethoxyphenyl)-1,7-dicarba-closo-dodecaborane [BR262]” was run?
The IC50 was 200 nM.

How did the IC50 turn out when “1-(4-hydroxyphenyl)-12-(4-dimethylaminoethoxyphenyl)-1,12-dicarba-closo-dodecaborane [BR162]” was run?
Its IC50 is 10 nM.
